Measurements: patent US12063930B2, “Sulfonamide-containing 4-(N-methyl) aminopiperidine myricetin derivatives, preparation method and application” (Guizhou University, priority 2019, dated 2024)
Read-outs that look alike come from different tables or passages of the source.

Legend:
[1] = system: tobacco bacterial wilt pathogen (Rs); assay type: cell-based, Ralstonia solanacearum
[2] = system: rice bacterial wilt pathogen (Xoo); assay type: cell-based, Xanthomonas oryzae pv. oryzae
[3] = system: citrus canker pathogen (Xac); assay: Turbidimetric anti-plant bacterial activity test, citrus canker pathogen; assay type: cell-based, Xanthomonas axonopodis pv. citri

Compound | Inhibition Rate ([1]; 50 μg/mL) | Inhibition Rate ([1]; 100 μg/mL) | Inhibition Rate ([2]; 50 μg/mL) | Inhibition Rate ([2]; 100 μg/mL) | Inhibition Rate ([3]; 50 μg/mL) | Inhibition Rate ([3]; 100 μg/mL)
COc1cc(OC)c2c(=O)c(OCCCN(C)C3CCN(S(=O)(=O)c4cccs4)CC3)c(-c3cc(OC)c(OC)c(OC)c3)oc2c1 [Compound I4] | 46.44 ± 8.48% | 58.19 ± 8.11% | 21.34 ± 3.45% | 48.16 ± 4.24% | 76.83 ± 2.59% | 81.47 ± 3.58%
COc1cc(OC)c2c(=O)c(OCCCN(C)C3CCN(S(=O)(=O)c4ccc5ccccc5c4)CC3)c(-c3cc(OC)c(OC)c(OC)c3)oc2c1 [Compound I2] | 34.17 ± 5.87% | 30.28 ± 8.79% | 88.53 ± 5.30% | 99.01 ± 4.53% | 92.76 ± 2.12% | 99.55 ± 5.61%
COc1cc(OC)c2c(=O)c(OCCCN(C)C3CCN(S(=O)(=O)c4ccc5cccnc5c4)CC3)c(-c3cc(OC)c(OC)c(OC)c3)oc2c1 [Compound I9] | 12.10 ± 2.57% | 28.82 ± 3.37% | 37.31 ± 5.41% | 40.25 ± 1.39% | 32.80 ± 2.29% | 42.50 ± 1.87%
bismerthiazol [Leaf Blight Azole, reference compound] | 57.63% | 65.69% | 39.14% | 60.50% | 50.60% | 66.63%
COc1cc(OC)c2c(=O)c(OCCCCN(C)C3CCN(S(=O)(=O)c4ccc5ccccc5c4)CC3)c(-c3cc(OC)c(OC)c(OC)c3)oc2c1 [Compound I12] | 45.75 ± 3.32% | 36.46 ± 7.42% | 89.81 ± 1.34% | 95.44 ± 4.92% | 29.56 ± 7.62% | 35.81 ± 2.40%
COc1ccc(S(=O)(=O)N2CCC(N(C)CCCOc3c(-c4cc(OC)c(OC)c(OC)c4)oc4cc(OC)cc(OC)c4c3=O)CC2)cc1 [Compound I5] | 18.66 ± 9.95% | 49.03 ± 5.33% | 56.37 ± 2.44% | 68.42 ± 4.76% | 84.37 ± 1.91% | 95.86 ± 1.19%
COc1cc(OC)c2c(=O)c(OCCCN(C)C3CCN(S(=O)(=O)c4ccc([N+](=O)[O-])cc4)CC3)c(-c3cc(OC)c(OC)c(OC)c3)oc2c1 [Compound I6] | 26.01 ± 6.89% | 59.09 ± 4.18% | 52.08 ± 6.32% | 60.99 ± 5.49% | 96.13 ± 1.63% | 99.01 ± 0.64%
COc1cc(OC)c2c(=O)c(OCCCCN(C)C3CCN(S(=O)(=O)c4cccs4)CC3)c(-c3cc(OC)c(OC)c(OC)c3)oc2c1 [Compound I14] | 20.44 ± 5.03% | 8.17 ± 3.75% | 92.19 ± 0.98% | 95.49 ± 0.98% | 66.18 ± 0.61% | 73.80 ± 3.68%
COc1cc(OC)c2c(=O)c(OCCCCN(C)C3CCN(S(=O)(=O)c4ccc5cccnc5c4)CC3)c(-c3cc(OC)c(OC)c(OC)c3)oc2c1 [Compound I19] | 37.71 ± 3.71% | 35.21 ± 6.56% | 38.72 ± 1.36% | 51.83 ± 2.05% | 85.44 ± 1.04% | 89.05 ± 0.47%
COc1cc(OC)c2c(=O)c(OCCCN(C)C3CCN(S(=O)(=O)c4ccccc4)CC3)c(-c3cc(OC)c(OC)c(OC)c3)oc2c1 [Compound I7] | 50.24 ± 2.21% | 52.83 ± 6.66% | 48.01 ± 3.21% | 53.46 ± 2.80% | 89.57 ± 2.14% | 92.48 ± 0.65%
COc1cc(OC)c2c(=O)c(OCCCN(C)C3CCN(S(=O)(=O)c4ccccc4[N+](=O)[O-])CC3)c(-c3cc(OC)c(OC)c(OC)c3)oc2c1 [Compound I10] | 57.89 ± 3.30% | 94.99 ± 1.50% | 59.65 ± 2.25% | 67.71 ± 2.22% | 38.60 ± 4.17% | 45.69 ± 0.50%
COc1cc(OC)c2c(=O)c(OCCCCN(C)C3CCN(S(=O)(=O)c4ccc([N+](=O)[O-])cc4)CC3)c(-c3cc(OC)c(OC)c(OC)c3)oc2c1 [Compound I16] | 27.52 ± 7.50% | 26.66 ± 4.37% | 55.67 ± 6.24% | 70.41 ± 2.62% | 66.33 ± 3.56% | 74.41 ± 1.31%
COc1cc(OC)c2c(=O)c(OCCCCN(C)C3CCN(S(=O)(=O)c4ccc(F)cc4)CC3)c(-c3cc(OC)c(OC)c(OC)c3)oc2c1 [Compound I13] | 43.16 ± 3.98% | 49.25 ± 4.14% | 99.72 ± 1.10% | 100.00 ± 0.67% | 47.25 ± 4.42% | 48.08 ± 1.17%
COc1cc(OC)c2c(=O)c(OCCCCN(C)C3CCN(S(=O)(=O)c4ccccn4)CC3)c(-c3cc(OC)c(OC)c(OC)c3)oc2c1 [Compound I18] | 46.22 ± 3.27% | 30.11 ± 1.65% | 70.98 ± 3.04% | 78.12 ± 4.25% | 88.69 ± 0.71% | 93.05 ± 0.55%
COc1ccc(S(=O)(=O)N2CCC(N(C)CCCCOc3c(-c4cc(OC)c(OC)c(OC)c4)oc4cc(OC)cc(OC)c4c3=O)CC2)cc1 [Compound I15] | 3.13 ± 5.57% | 24.02 ± 2.41% | 94.39 ± 0.62% | 96.11 ± 0.71% | 62.21 ± 1.33% | 67.94 ± 1.42%
COc1cc(OC)c2c(=O)c(OCCCCN(C)C3CCN(S(=O)(=O)c4ccc(C)cc4)CC3)c(-c3cc(OC)c(OC)c(OC)c3)oc2c1 [Compound I11] | 46.83 ± 6.39% | 93.56 ± 0.55% | 71.76 ± 4.56% | 87.57 ± 2.76% | 47.25 ± 5.84% | 54.94 ± 8.29%
COc1cc(OC)c2c(=O)c(OCCCN(C)C3CCN(S(=O)(=O)c4ccc(C)cc4)CC3)c(-c3cc(OC)c(OC)c(OC)c3)oc2c1 [Compound I1] | 47.86 ± 5.55% | 58.01 ± 6.08% | 75.88 ± 1.80% | 81.34 ± 0.57% | 93.55 ± 0.85% | 99.20 ± 4.48%
COc1cc(OC)c2c(=O)c(OCCCN(C)C3CCN(S(=O)(=O)c4ccccn4)CC3)c(-c3cc(OC)c(OC)c(OC)c3)oc2c1 [Compound I8] | 47.65 ± 0.35% | 48.99 ± 2.35% | 52.14 ± 3.12% | 59.94 ± 3.35% | 85.13 ± 2.35% | 88.03 ± 1.19%
COc1cc(OC)c2c(=O)c(OCCCCN(C)C3CCN(S(=O)(=O)c4ccccc4)CC3)c(-c3cc(OC)c(OC)c(OC)c3)oc2c1 [Compound I17] | 45.66 ± 3.26% | 38.06 ± 1.91% | 89.16 ± 1.26% | 98.29 ± 2.42% | 99.00 ± 0.40% | 99.52 ± 0.87%
Nc1nnc([S-])s1.Nc1nnc([S-])s1.[Cu+2] [Thiabenone, thiodiazole copper, reference compound] | 20.86 ± 4.42% | 40.20% | 58.92% | 70.12% | 44.97% | 70.68%
COc1cc(OC)c2c(=O)c(OCCCN(C)C3CCN(S(=O)(=O)c4ccc(F)cc4)CC3)c(-c3cc(OC)c(OC)c(OC)c3)oc2c1 [Compound I3] | 56.37 ± 3.41% | 55.25 ± 2.35% | 9.99 ± 7.64% | 53.31 ± 3.55% | 88.81 ± 1.32% | 94.73 ± 1.63%
COc1cc(OC)c2c(=O)c(OCCCCN(C)C3CCN(S(=O)(=O)c4ccccc4[N+](=O)[O-])CC3)c(-c3cc(OC)c(OC)c(OC)c3)oc2c1 [Compound I20] | 21.26 ± 8.58% | 4.11 ± 3.12% | 90.29 ± 4.84% | 94.47 ± 8.30% | 96.57 ± 0.31% | 97.30 ± 1.97%
